Reference: PMC5298231, “The Malaria Parasite's Lactate Transporter PfFNT Is the Target of Antiplasmodial Compounds Identified in Whole Cell Phenotypic Screens” (PLoS Pathogens, 2017)
“Also recorded” adds a separate entry of the source.

Columns and labels:
Dd2 parent parasites = test: Parasite proliferation assay, Dd2 parent; assay type: cell-based, Plasmodium falciparum; settings: Plasmodium falciparum, DD2, read-out: IC50 value, growth inhibition
Method: Parasite proliferation was measured in 96-well plates using a fluorescent DNA-intercalating dye [45]. The assays were initiated with erythrocytes infected with predominantly ring-stage parasites, and the starting parasitaemia was 0.5–1% and the haematocrit was 1%.

[1] = tested on: MMV007839-selected culture B (PfFNT Gly107Ser); test: Parasite proliferation assay, MMV007839-selected culture B; assay type: cell-based, Plasmodium falciparum; settings: Plasmodium falciparum, read-out: IC50 value, growth inhibition
Method: (§1) Parasite proliferation was measured in 96-well plates using a fluorescent DNA-intercalating dye. The assays were initiated with erythrocytes infected with predominantly ring-stage parasites, and the starting parasitaemia was 0.5–1% and the haematocrit was 1%.
(§2) For MMV007839-selected culture A, the drug concentration was increased by 5 nM increments on Day 18, Day 21, and every two days thereafter. […] The cultures were provided with fresh medium and blood and diluted to reduce the parasitaemia as needed.

[2] = tested on: MMV007839-selected culture A (PfFNT Gly107Ser); test: Parasite proliferation assay, MMV007839-selected culture A; assay type: cell-based, Plasmodium falciparum
Method: as §1, §2

3D7 parasites = settings: ref [1] Van Voorhis et al. 2016; read-out: IC50 for killing of 3D7 parasites; cited from earlier work
[3] = tested on: PfFNT^Gly107Ser mutant parasites (MMV007839-selected culture B); test: L-[14C]lactate uptake by isolated PfFNT Gly107Ser mutant parasites; settings: 100 μM, pH 6.1, 4°C
Dd2 parental parasites = test: L-[14C]lactate uptake by isolated Dd2 parental parasites; settings: 100 μM; parental parasites; pH 6.1, 4°C
[4] = tested on: isolated 3D7 P. falciparum trophozoites; test: L-[14C]lactate uptake by isolated 3D7 trophozoites; settings: 50 μM; pH 6.1, 4°C; control (DMSO) 6.7 ± 0.4; mean ± SEM
[5] = tested on: erythrocytes infected with 3D7 trophozoites; assay type: cell-based, Plasmodium falciparum; settings: sheet Ratio; for Ratio of metabolite abundance, Exp1_1hr: Exp1, 1hr; for Ratio of metabolite abundance, Exp1_3hr: Exp1, 3hr; for Ratio of metabolite abundance, Exp1_6hr: Exp1, 6hr; for Ratio of metabolite abundance, Exp2_1hr: Exp2, 1hr; for Ratio of metabolite abundance, Exp2_3hr: Exp2, 3hr; for Ratio of metabolite abundance, Exp2_6hr: Exp2, 6hr; for Ratio of metabolite abundance, Exp3_1hr: Exp3, 1hr; for Ratio of metabolite abundance, Exp3_3hr: Exp3, 3hr; for Ratio of metabolite abundance, Exp3_6hr: Exp3, 6hr

C[C@@H]1CC[C@H]2[C@@H](C)C(=O)O[C@@H]3O[C@@]4(C)CC[C@@H]1[C@]32OO4 [Artemisinin, reference compound]
IC50 (Dd2 parent parasites): 15.6 nM
IC50 [1]: 16.5 ± 0.4 nM
IC50 ([2]; Plasmodium falciparum, MMV007839-selected culture A, mean ± SEM, read-out: IC50 value, growth inhibition): 22 ± 3.3 nM
Response of MMV007839-selected cultures compared with Dd2 parental parasites ([2]; both MMV007839-selected cultures (A and B), P > 0.1): not significantly different; also recorded: not affecting

CC(C)OCc1cc(CN2CCN(c3cccc(Cl)c3)CC2)c(O)c2ncccc12 [MMV000788]
IC50 (3D7 parasites): 700 nM

Brc1ccc(Nc2nc3ccccc3nc2Nc2ccc(Br)cc2)cc1 [MMV007224]
IC50 (3D7 parasites): 1060 nM

Cc1ccc(Nc2nc(-c3ccccn3)cs2)cc1 [MMV007907]
IC50 (3D7 parasites): 350 nM

Cc1cccc(-n2ncc3c(O)nc(-n4nc(C)cc4NC(=O)c4cc5ccccc5o4)nc32)c1 [MMV403679]
IC50 (3D7 parasites): 930 nM

FC(F)(F)c1cccc(Nc2nc3ccccc3nc2Nc2cccc(C(F)(F)F)c2)c1 [MMV665794]
IC50 (3D7 parasites): 310 nM

O=C(Nc1ccc(Cl)c(Cl)c1)Nc1ccc(Cl)c(Cl)c1 [MMV665852]
IC50 (3D7 parasites): 1160 nM

CCCCNc1nc(NC(C)(C)C)nc(NC(C)(C)C)n1 [MMV665864]
IC50 (3D7 parasites): 710 nM

O=C(Nc1nc(-c2ccccn2)cs1)c1ccccc1Br [MMV665909]
IC50 (3D7 parasites): 1360 nM

O=C(Nc1ccc(F)c(Cl)c1)Nc1ccc(Cl)c(Cl)c1 [MMV665953]
IC50 (3D7 parasites): 2060 nM

O=C(Cc1ccccc1)NC(c1ccc(Cl)cc1)c1c(O)ccc2ccccc12 (stereo not shown) [MMV665972]
IC50 (3D7 parasites): 1140 nM

CCCCCCc1cc(O)c2c3c(c(=O)oc2c1)CCC(C)C3 (stereo not shown) [MMV665987]
IC50 (3D7 parasites): 530 nM

O=C(NC(c1ccccc1)c1ccc2cccnc2c1O)c1ccccc1 (stereo not shown) [MMV666080]
IC50 (3D7 parasites): 1170 nM

O=C(O)c1cc([N+](=O)[O-])ccc1NCCCc1ccccc1 [NPPB, reference compound]
Effect on rate of L-[14C]lactate influx [3]: reduced the rate
Effect on rate of L-[14C]lactate influx (Dd2 parental parasites): reduced the rate
L-[14C]lactate distribution ratio at 20 s [4]: 0.4 ± 0.1

CC(C)[C@H](N)C(=O)N[C@@H](CC(=O)O)C(=O)O [VD]
Ratio of metabolite abundance, Exp1_1hr [5]: 1.809
Ratio of metabolite abundance, Exp1_3hr [5]: 1.252
Ratio of metabolite abundance, Exp1_6hr [5]: 2.887
Ratio of metabolite abundance, Exp2_1hr [5]: 2.091
Ratio of metabolite abundance, Exp2_3hr [5]: 1.368
Ratio of metabolite abundance, Exp2_6hr [5]: 1.996
Ratio of metabolite abundance, Exp3_1hr [5]: 11.5926
Ratio of metabolite abundance, Exp3_3hr [5]: 5.435
Ratio of metabolite abundance, Exp3_6hr [5]: 7.8446

Nc1ncnc2c1ncn2[C@H]1C[C@H](O)[C@@H](COP(=O)(O)OP(=O)(O)O)O1 [dADP]
Ratio of metabolite abundance, Exp1_1hr [5]: 0.4339
Ratio of metabolite abundance, Exp1_3hr [5]: 0.1672
Ratio of metabolite abundance, Exp1_6hr [5]: 0.2747
Ratio of metabolite abundance, Exp2_1hr [5]: 1.0009
Ratio of metabolite abundance, Exp2_3hr [5]: 0.9609
Ratio of metabolite abundance, Exp2_6hr [5]: 1.167
Ratio of metabolite abundance, Exp3_1hr [5]: 1.173
Ratio of metabolite abundance, Exp3_3hr [5]: 0.5208
Ratio of metabolite abundance, Exp3_6hr [5]: 1.268

Nc1ncnc2c1ncn2[C@H]1C[C@H](O)[C@@H](COP(=O)(O)OP(=O)(O)OP(=O)(O)O)O1 [dATP]
Ratio of metabolite abundance, Exp1_1hr [5]: 0.9995
Ratio of metabolite abundance, Exp1_3hr [5]: 0.8537
Ratio of metabolite abundance, Exp1_6hr [5]: 0.9613
Ratio of metabolite abundance, Exp2_1hr [5]: 1.009
Ratio of metabolite abundance, Exp2_3hr [5]: 1.102
Ratio of metabolite abundance, Exp2_6hr [5]: 1.077
Ratio of metabolite abundance, Exp3_1hr [5]: 1.104
Ratio of metabolite abundance, Exp3_3hr [5]: 0.9965
Ratio of metabolite abundance, Exp3_6hr [5]: 1.005

Nc1ccn([C@H]2C[C@H](O)[C@@H](COP(=O)(O)OP(=O)(O)O)O2)c(=O)n1 [dCDP]
Ratio of metabolite abundance, Exp1_1hr [5]: 1.169
Ratio of metabolite abundance, Exp1_3hr [5]: 1.109
Ratio of metabolite abundance, Exp1_6hr [5]: 1.155
Ratio of metabolite abundance, Exp2_1hr [5]: 1.1851
Ratio of metabolite abundance, Exp2_3hr [5]: 1.387
Ratio of metabolite abundance, Exp2_6hr [5]: 1.852
Ratio of metabolite abundance, Exp3_1hr [5]: 1.354
Ratio of metabolite abundance, Exp3_3hr [5]: 1.295
Ratio of metabolite abundance, Exp3_6hr [5]: 1.494

Nc1nc2c(ncn2[C@H]2C[C@H](O)[C@@H](COP(=O)(O)O)O2)c(=O)[nH]1 [dGMP]
Ratio of metabolite abundance, Exp1_1hr [5]: 1.008
Ratio of metabolite abundance, Exp1_3hr [5]: 1.65
Ratio of metabolite abundance, Exp1_6hr [5]: 0.6713
Ratio of metabolite abundance, Exp2_1hr [5]: 1.04
Ratio of metabolite abundance, Exp2_3hr [5]: 0.9344
Ratio of metabolite abundance, Exp2_6hr [5]: 0.8266
Ratio of metabolite abundance, Exp3_1hr [5]: 1.138
Ratio of metabolite abundance, Exp3_3hr [5]: 0.9165
Ratio of metabolite abundance, Exp3_6hr [5]: 0.8614

Cc1cn([C@H]2C[C@H](O)[C@@H](COP(=O)(O)O)O2)c(=O)[nH]c1=O [dTMP]
Ratio of metabolite abundance, Exp1_1hr [5]: 1.094
Ratio of metabolite abundance, Exp1_3hr [5]: 1.051
Ratio of metabolite abundance, Exp1_6hr [5]: 1.314
Ratio of metabolite abundance, Exp2_1hr [5]: 1.082
Ratio of metabolite abundance, Exp2_3hr [5]: 1.005
Ratio of metabolite abundance, Exp2_6hr [5]: 1.669
Ratio of metabolite abundance, Exp3_1hr [5]: 0.8062
Ratio of metabolite abundance, Exp3_3hr [5]: 1.245
Ratio of metabolite abundance, Exp3_6hr [5]: 1.203

Cc1cn([C@H]2C[C@H](O)[C@@H](COP(=O)(O)OP(=O)(O)OP(=O)(O)O)O2)c(=O)[nH]c1=O [dTTP]
Ratio of metabolite abundance, Exp1_1hr [5]: 1.097
Ratio of metabolite abundance, Exp1_3hr [5]: 0.6301
Ratio of metabolite abundance, Exp1_6hr [5]: 0.6957
Ratio of metabolite abundance, Exp2_1hr [5]: 1.256
Ratio of metabolite abundance, Exp2_3hr [5]: 1.272
Ratio of metabolite abundance, Exp2_6hr [5]: 1.427
Ratio of metabolite abundance, Exp3_1hr [5]: 1.1105
Ratio of metabolite abundance, Exp3_3hr [5]: 1.053
Ratio of metabolite abundance, Exp3_6hr [5]: 1.149

O=c1ccn([C@H]2C[C@H](O)[C@@H](COP(=O)(O)O)O2)c(=O)[nH]1 [dUMP]
Ratio of metabolite abundance, Exp1_1hr [5]: 3.473
Ratio of metabolite abundance, Exp1_3hr [5]: 5.178
Ratio of metabolite abundance, Exp1_6hr [5]: 2.302
Ratio of metabolite abundance, Exp2_1hr [5]: 3.524
Ratio of metabolite abundance, Exp2_3hr [5]: 1.859
Ratio of metabolite abundance, Exp2_6hr [5]: 4.376
Ratio of metabolite abundance, Exp3_1hr [5]: 1.122
Ratio of metabolite abundance, Exp3_3hr [5]: 1.775
Ratio of metabolite abundance, Exp3_6hr [5]: 0.8871

O=P(O)(O)OC[C@H](O)CO [sn-Glycerol 3-phosphate]
Ratio of metabolite abundance, Exp1_1hr [5]: 2.74
Ratio of metabolite abundance, Exp1_3hr [5]: 3.024
Ratio of metabolite abundance, Exp1_6hr [5]: 2.283
Ratio of metabolite abundance, Exp2_1hr [5]: 2.716
Ratio of metabolite abundance, Exp2_3hr [5]: 2.322
Ratio of metabolite abundance, Exp2_6hr [5]: 2.253
Ratio of metabolite abundance, Exp3_1hr [5]: 2.3639
Ratio of metabolite abundance, Exp3_3hr [5]: 3.645
Ratio of metabolite abundance, Exp3_6hr [5]: 2.752

O=P(O)(OC[C@H](O)CO)OC1[C@H](O)[C@H](O)C(O)[C@H](O)[C@H]1O (stereo partly shown) [sn-glycero-3-Phospho-1-inositol]
Ratio of metabolite abundance, Exp1_1hr [5]: 0.9506
Ratio of metabolite abundance, Exp1_3hr [5]: 1.24
Ratio of metabolite abundance, Exp1_6hr [5]: 0.9287
Ratio of metabolite abundance, Exp2_1hr [5]: 1.0526
Ratio of metabolite abundance, Exp2_3hr [5]: 1.0759
Ratio of metabolite abundance, Exp2_6hr [5]: 1.139
Ratio of metabolite abundance, Exp3_1hr [5]: 0.7659
Ratio of metabolite abundance, Exp3_3hr [5]: 1.067
Ratio of metabolite abundance, Exp3_6hr [5]: 1.2236
